As a reminder, the fraction unbound is free concentration divided by total concentration. The solubility is the dissolved amount per volume that the medium holds. The term Papp A→B denotes the apparent permeability from the apical to the basolateral side of a cell layer. Usually chromatographic logD stands for a lipophilicity value derived from retention on a column.

This is an account of results in ChEMBL document CHEMBL6134898, “In Vitro ADME Profiling of PROTACs: Successes, Challenges, and Lessons Learned from Analysis of Clinical PROTACs from a Diverse Physicochemical Space” (J Med Chem, 2025).

≈ marks a conversion by molar mass, not a printed value. Bounds are passed on as bounds.

Data set [1] in a line: Intrinsic clearance in monkey hepatocytes measured per million cells at 1 uM measured for 0.5 to 120 mins by LC-MS/MS analysis. It counts as ADME, cell-based, Macaca mulatta, Hepatocyte. The conditions noted are these: rhesus monkey, time 0.5-120 min, read-out: CLH.
Data set [2] in a line: Protein binding in dog plasma assessed as free fraction at 5 uM incubated for 18 hrs by LC-MS/MS analysis. Type of data set: ADME, cell-free, Canis lupus familiaris.
Data set [3] in a line: Protein binding in human plasma assessed as free fraction at 5 uM incubated for 18 hrs by LC-MS/MS analysis. It counts as ADME, cell-free.
Data set [4] is described as follows: Solubility of compound in FaSSIF at pH 6.5 measured after 24 hrs by UPLC analysis. It counts as physicochemical.
Data set [5] is described as follows: Blood to plasma partitioning ratio in dog at 10 uM incubated for 30 mins by LC-MS/MS analysis. Conditions: whole blood. It counts as ADME, cell-free, Canis lupus familiaris.
Data set [6] is described as follows: Protein binding in rat hepatocytes assessed as free fraction at 5 uM incubated for 18 hrs by LC-MS/MS analysis. It counts as ADME, cell-based, Hepatocyte.
A short description of data set [7]: Apparent permeability across apical to basal side in human Caco-2 cells at 1 uM incubated for 120 mins by LC-MS/MS analysis. Type of data set: ADME, cell-based. Background: Caco-2 cells form a polarised layer with tight junctions and transporters.
A short description of data set [8]: Intrinsic clearance in dog hepatocytes measured per million cells at 1 uM measured for 0.5 to 120 mins by LC-MS/MS analysis. It counts as ADME, cell-based, Canis lupus familiaris, Hepatocyte. The conditions noted are these: time 0.5-120 min, read-out: CLH.
The nature of data set [9]: Intrinsic clearance in rat hepatocytes measured per million cells at 1 uM measured for 0.5 to 120 mins by LC-MS/MS analysis. Conditions: time 0.5-120 min, read-out: CLH. It counts as ADME, cell-based, Hepatocyte.
A short description of data set [10]: Protein binding in human plasma assessed as compound recovery at 5 uM incubated for 18 hrs by LC-MS/MS analysis. Type of data set: ADME, cell-free. Conditions: read-out: Drug recovery.
The nature of data set [11]: Stability in human plasma at 5 uM incubated for 18 hrs by LC-MS/MS analysis. Type of data set: ADME, cell-free. Conditions: read-out: Stability.
Data set [12] is described as follows: Solubility of compound in SGF at pH 1.2 measured after 24 hrs by UPLC analysis. It counts as physicochemical.
Data set [13] can be described thus: Intrinsic clearance in mouse hepatocytes measured per million cells at 1 uM measured for 0.5 to 120 mins by LC-MS/MS analysis. Conditions: time 0.5-120 min, read-out: CLH. Type of data set: ADME, cell-based, Hepatocyte.
Data set [14] can be described thus: Protein binding in monkey plasma assessed as free fraction at 5 uM incubated for 18 hrs by LC-MS/MS analysis. It counts as ADME, cell-free, Macaca mulatta. The conditions noted are these: rhesus monkey.
Data set [15] is described as follows: Apparent permeability across apical to basal side in human Caco-2 cells at 1 uM incubated for 120 mins followed by ACN addition by LC-MS/MS analysis. Type of data set: ADME, cell-based.
The nature of data set [16]: Intrinsic clearance in human hepatocytes measured per million cells at 1 uM measured for 0.5 to 120 mins by LC-MS/MS analysis. Type of data set: ADME, cell-based, Hepatocyte. Conditions: time 0.5-120 min, read-out: CLH.
Data set [17] is described as follows: Solubility of compound in FeSSIF at pH 5 measured after 24 hrs by UPLC analysis. Type of data set: physicochemical.
A short description of data set [18]: Blood to plasma partitioning ratio in rat at 10 uM incubated for 30 mins by LC-MS/MS analysis. Conditions: whole blood. Type of data set: ADME, cell-free.
Data set [19] can be described thus: Protein binding in rat plasma assessed as free fraction at 5 uM incubated for 18 hrs by LC-MS/MS analysis. Type of data set: ADME, cell-free.
Data set [20] in a line: Blood to plasma partitioning ratio in human at 10 uM incubated for 30 mins by LC-MS/MS analysis. Type of data set: ADME, cell-free. Conditions: whole blood.
Data set [21] is described as follows: Lipophilicity, LogD of compound by Chromatography. Type of data set: physicochemical.
The nature of data set [22]: Protein binding in mouse plasma assessed as free fraction at 5 uM incubated for 18 hrs by LC-MS/MS analysis. It counts as ADME, cell-free.

Consider `CCc1cc(N2C(=S)N(c3ccc(C#N)c(C(F)(F)F)c3)C(=O)C2(C)C)ccc1OCCN1CCN(CC(=O)Nc2cccc(NC3CCC(=O)NC3=O)c2)[C@H](C)C1` (stereo partly specified), for which the hepatocyte CLint at 1 µM in [1] was 5 µL/min/1e6 cells; in data set [8], at most 1 µL/min/1e6 cells; in [9], 11 µL/min/1e6 cells; in data set [13], 10 µL/min/1e6 cells; in data set [16], 3 µL/min/1e6 cells. Moreover, the fraction unbound at 18 h, 5 µM was below 0.001 in data set [2]; below 0.001 in [3]; below 0.001 in data set [6]; 0.003 in data set [14]; 0.003 in [19]. Moreover, the solubility at 24 h came to 0.3 µg/mL (≈ 0.366 µM) in data set [4], 16 µg/mL (≈ 19.5 µM) in data set [12] and 293 µg/mL (≈ 358 µM) in [17]. The blood plasma ratio at 0.5 h, 10 µM in data set [5] was 0.6; in data set [18], 0.7; in data set [20], 0.6. For the same molecule, the Papp A→B at 2 h, 1 µM in data set [7] was below 0.3 ×10⁻⁶ cm/s; in [15] it was 1.2 ×10⁻⁶ cm/s. In addition, the recovery at 18 h, 5 µM in data set [10] amounted to 82%. Besides, in [11], the remaining at 18 h, 5 µM was 72%. This molecule also displayed a chromatographic logD in data set [21] of 5.2.

On to `Cn1c(=O)n([C@H]2CCC(=O)NC2=O)c2cccc(C#CCOC3CCN(C[C@H]4CC[C@H](n5cc(NC(=O)c6cnn7ccc(N8C[C@H]9C[C@@H]8CO9)nc67)c(C(F)F)n5)CC4)CC3)c21`, for which the hepatocyte CLint at 1 µM in [1] is 10 µL/min/1e6 cells; in [8], 4 µL/min/1e6 cells; in [9] it was 11 µL/min/1e6 cells; in data set [13] it was 11 µL/min/1e6 cells; in data set [16], 3 µL/min/1e6 cells. Besides, the free fraction (fraction unbound) at 18 h, 5 µM in data set [2] came out at 0.026; in data set [3] it was 0.022; in data set [6], 0.069; in [14], 0.035; in data set [22], 0.008. Moreover, the solubility at 24 h in data set [4] is 1.6 µg/mL (≈ 1.85 µM); in [12], 4.1 µg/mL (≈ 4.73 µM); in data set [17] it was 33 µg/mL (≈ 38.1 µM). Also, the Papp A→B at 2 h, 1 µM in data set [7] was found to be 2.4 ×10⁻⁶ cm/s; in data set [15], 5.3 ×10⁻⁶ cm/s. Besides, in data set [10], the recovery at 18 h, 5 µM stood at 56%. In addition, in data set [11], the remaining at 18 h, 5 µM is 68%. In data set [21], this molecule gave a chromatographic logD of 2.4.

In the case of `Cc1ncsc1-c1ccc([C@H](C)NC(=O)[C@@H]2C[C@@H](O)CN2C(=O)[C@@H](NC(=O)CCCCCC(=O)N2CCN(CC[C@H](CSc3ccccc3)Nc3ccc(S(=O)(=O)NC(=O)c4ccc(N5CCN(CC6=C(c7ccc(Cl)cc7)CCC(C)(C)C6)CC5)cc4)cc3S(=O)(=O)C(F)(F)F)CC2)C(C)(C)C)cc1` [DT-2216], the hepatocyte CLint at 1 µM is at most 1 µL/min/1e6 cells in [1]; below 1 µL/min/1e6 cells in data set [8]; 3 µL/min/1e6 cells in data set [9]; below 1 µL/min/1e6 cells in data set [13]; 3 µL/min/1e6 cells in data set [16]. Further, the fraction unbound at 18 h, 5 µM in data set [3] was below 0.003; in data set [6] it was below 0.001. Besides, the figures for the blood plasma ratio at 0.5 h, 10 µM in [5], in [18] and in [20] were 0.8, 0.7 and 0.9, respectively. For the same molecule, the recovery at 18 h, 5 µM in [10] came to 91%. For the same molecule, the remaining at 18 h, 5 µM in [11] was found to be 92%. Also, the chromatographic logD in [21] is 7.3.

Consider `NC(=O)c1ncc(N2CCCCC2)nc1Nc1ccc(C2CCN(C[C@@H]3CCN(c4ccc5c(c4)C(=O)N(C4CCC(=O)NC4=O)C5=O)C3)CC2)cc1` (stereo partly specified), for which the hepatocyte CLint at 1 µM in data set [1] is 6 µL/min/1e6 cells; in data set [8], 4 µL/min/1e6 cells; in [9], 5 µL/min/1e6 cells; in [13], 8 µL/min/1e6 cells; in data set [16], below 1 µL/min/1e6 cells. Besides, the unbound share (fraction unbound) at 18 h, 5 µM in data set [2] is below 0.001; in data set [3] it was below 0.004; in data set [6], 0.003; in data set [14], below 0.002; in data set [19], 0.001; in data set [22], below 0.001. For the same molecule, the figures for the blood plasma ratio at 0.5 h, 10 µM in data set [5], in [18] and in data set [20] were 0.5, 0.6 and 0.8, respectively. Also, the Papp A→B at 2 h, 1 µM in data set [7] and in [15] was below 0.1 ×10⁻⁶ cm/s each time. Besides, in data set [10], the recovery at 18 h, 5 µM was 90%. Besides, in [11], the remaining at 18 h, 5 µM is 78%. Besides, the chromatographic logD in [21] was found to be 5.1.
